Entries after “also recorded” stand apart in the source; their conditions may differ.
Key:
[1] = system: PTS noise exposed guinea pigs; assay: Guinea pig model of PTS, auditory brainstem response (ABR) thresholds after noise exposure; type: in vivo; conditions: left ear infused with 50 μM Fluvastatin, 250 μL over 28 days by miniosmotic pump, from noise exposure on; hearing measured in contralateral right ear
Source text: A testing method with a guinea pig model of PTS was developed for this purpose. Compounds were introduced into the left ear of the subject with a cannula attached to a miniosmotic pump. Because the cannula is physically within the cochlea, it had the possibility of interfering with sound transfer in the cochlea, and thereby interfering with auditory brain response (ABR) measurements. For this reason, the compound was delivered via cannula to the left ear, but tested for its effect in the contralateral ear, taking advantage of the connection between cochlear fluids and the cerebral spinal fluid. Animals were subjected to an sound injury causing PTS. Fluvastatin was delivered in vivo to the left ear at 50 times the concentration that was effective for stimulating neurite growth in vitro and ABRs were evaluated in the contralateral, right cochleas. […] The compound was first evaluated for the ability to provide a protective effect from hearing loss attributed to high level noise, wherein the compound was delivered at the same time as the noise exposure and for 4 weeks thereafter. […]
Drug efficiency was tested in guinea pigs, 200-500 g in body weight. […] Baseline cochlear function was determined with auditory brainstem responses. Sound levels to evoke a visual ABR response were determined for pure tones at selected frequencies between 2 and 32 kHz and for acoustic clicks. […]

spiral ganglion neurons = assay: In vitro phenotypic screening assay of neurite length in spiral ganglion cultures; type: cell-based, mouse; conditions: for lowest effective dose for stimulating neurite growth (neurite length dose response) / effect on neurite length: spiral ganglion cultures; for lowest effective dose for stimulating neurite growth (neurite length dose response): cumulative percent histograms of neurite length vs DMSO control, highest dose tested 25 μM for Pravastatin; for effect on neurite length at 10 μM: media containing compound at 10 μM, DMSO negative control, 4 replicate cultures; for effect on neurite length: compound in culture media
Source text: The in vitro phenotypic screen for spiral ganglion neurons is designed to identify both survival promoting and neurite promoting compounds. The screening procedure focuses on the survival, neurite initiation and neurite elongation steps of the experimental model (FIG. 5A-C). […] Newborn mouse pups served as a source for preparing primary cultures of the spiral ganglia from 16 cochleas. From these cochleas, 192 cultures in a 384 well plate that enables screening of 45 compounds and 3 controls for each dissection.
The screening approach preferably uses automated imaging and computer assisted data analysis. […] Populations of neurites are measured and graphed as cumulative percent histograms of neurite length. In these graphs, a shift to the right means that the population had longer neurites.
CD-1 mice (Charles River Laboratories, Wilmington Mass. [US]), age newborn, were used for cultures that test neurite length; postnatal day 1-2 mice were used for cultures that test survival. Mice were anesthetized by cooling at −80° C. for 4 minutes and euthanized by aseptic decapitation.
Cultures were prepared by a modification of the procedure previously reported and modified (Whitlon et al., Neuroscience 138, 653-662 (2006); Lie et al., Neuroscience 169, 855-862 (2010); Whitlon et al. Neuroscience 146, 833-840 (2007); Whitlon et al., Neuroscience 161, 227-235 (2009)). To increase the number of cultures produced from one dissecting session while maintaining consistency in the preparations, the number of animals was increased to 8 (16 cochleas, a practical limit) and the volume of the cultures was decreased to 50 μl. Cells derived from the equivalent of […] ganglia were plated in each well. These changes allowed the material from each dissection session to be cultured in 192 wells of a standard 384 well plate. Each dissection session could accommodate 3 controls and 45 compounds in quadruplicate. The cochlear capsule was opened and the tissue was treated with Dispase, 5 units/ml. After washing, the cochlea was removed from its capsule. The cochlear epithelium, spiral ligament and stria were dissected away. […] Both were then diluted in medium and added to the wells 22 hours after plating. Cultures were fixed 24 hours later with 4% paraformaldehyde in 0.1M sodium phosphate buffer, pH 7.2 for 45 minutes. Conditions were tested in quadruplicate. […] Negative controls were the vehicles DMSO (0.17%) and water (0.17%).
Fixed cultures were immunolabeled for the neural βIII tubulin using the mouse monoclonal antibody TuJ1 and Alexa Fluor 594 tagged secondary antibody as described for immunofluorescent labeling (Whitlon et al. Neuroscience 161, 227-235 (2009)). Nuclei were visualized with Nuclear Yellow. The labeled cultures were preserved with one drop of DAKO fluorescent mounting medium in each well.
The immunolabeled 384 well plates were loaded into an Image Xpress automatic imager for image acquisition.

## CC(C)n1c(/C=C/[C@H](O)C[C@H](O)CC(=O)O)c(-c2ccc(F)cc2)c2ccccc21 (stereo in doubt) [Fluvastatin, (3S,5R,6E)-7-[3-(4-fluorophenyl)-1-(propan-2-yl)-1H-indol-2-yl]-3,5-dihydroxyhept-6-enoic acid]
[1]
  protection from hearing loss / permanent threshold shift (ABR threshold change): effective protection by preventing hearing loss; also recorded: PTS injury could not be induced
Spiral ganglion neurons
  lowest effective dose for stimulating neurite growth (neurite length dose response): 1 µM

## CC(C)c1c(C(=O)Nc2ccccc2)c(-c2ccccc2)c(-c2ccc(F)cc2)n1CC[C@@H](O)C[C@@H](O)CC(=O)O [Atorvastatin, (3R,5R)-7-[2-(4-fluorophenyl)-3-phenyl-4-(phenylcarbamoyl)-5-(propan-2-yl)-1H-pyrrol-1-yl]-3,5-dihydroxyheptanoic acid]
Spiral ganglion neurons
  lowest effective dose for stimulating neurite growth (neurite length dose response): 10 µM

## COCc1c(C(C)C)nc(C(C)C)c(/C=C/[C@@H](O)C[C@@H](O)CC(=O)O)c1-c1ccc(F)cc1 [Cerivastatin]
Spiral ganglion neurons; media containing both statin (Cerivastatin 10 μM or Fluvastatin 5 μM) and geranylgeraniol (10 μM)
  effect of geranylgeraniol on the statin's stimulation of neurite length: effectively blocked the stimulatory effect
Spiral ganglion neurons
  effect on neurite length at 10 μM: increased neurite length
  lowest effective dose for stimulating neurite growth (neurite length dose response): 1 µM
Spiral ganglion neurons; screen of NIH Clinical Collection, FIG. 11A
  neurite growth compared with positive control H1152: stimulated neurite growth as well as H1152

## O=S(=O)(c1cccc2cnccc12)N1CCCNCC1 [Fasudil]
Spiral ganglion neurons
  effect on neurite length: stimulated neurite length

## Cc1cncc2cccc(S(=O)(=O)N3CCCNC[C@@H]3C)c12 [H1152, 4-methyl-5-{[(2S)-2-methyl-1,4-diazepan-1-yl]sulfonyl}isoquinoline]
Spiral ganglion neurons
  effect on neurite length: stimulate neurite length; also recorded: increased neurite lengths

## O=c1[nH]ccc2c(S(=O)(=O)N3CCCNCC3)cccc12 [Hydroxyl Fasudil]
Spiral ganglion neurons
  effect on neurite length: stimulated neurite length

## CC[C@H](C)C(=O)O[C@H]1C[C@@H](C)C=C2C=C[C@H](C)[C@H](CC[C@@H]3C[C@@H](O)CC(=O)O3)[C@H]21 [Lovastatin, (1S,3R,7S,8S,8aR)-8-{2-[(2R,4R)-4-hydroxy-6-oxooxan-2-yl]ethyl}-3,7-dimethyl-1,2,3,7,8,8a-hexahydronaphthalen-1-yl (2S)-2-methylbutanoate]
Spiral ganglion neurons
  lowest effective dose for stimulating neurite growth (neurite length dose response): 5 µM

## O=C(O)C[C@H](O)C[C@H](O)/C=C/c1c(C2CC2)nc2ccccc2c1-c1ccc(F)cc1 [Pitavastatin, (3R,5S,6E)-7-[2-cyclopropyl-4-(4-fluorophenyl)quinolin-3-yl]-3,5-dihydroxyhept-6-enoic acid]
Spiral ganglion neurons; Pitavastatin at 2 μM or higher, H1152 16.5 μM
  measured lengths of neurites compared with positive control H1152: as long or longer
Spiral ganglion neurons
  effect on neurite length: increase neurite length; also recorded: effective up to the highest dose tested
  lowest effective dose for stimulating neurite growth (neurite length dose response): 2 µM

## CC[C@H](C)C(=O)O[C@H]1C[C@H](O)C=C2C=C[C@H](C)[C@H](CC[C@@H](O)C[C@@H](O)CC(=O)O)[C@H]21 [Pravastatin]
Spiral ganglion neurons
  lowest effective dose for stimulating neurite growth (neurite length dose response): > 25 µM

## CCC(C)(C)C(=O)O[C@H]1C[C@@H](C)C=C2C=C[C@H](C)[C@H](CC[C@@H]3C[C@@H](O)CC(=O)O3)[C@H]21 [Simvastatin, (1S,3R,7S,8S,8aR)-8-{2-[(2R,4R)-4-hydroxy-6-oxooxan-2-yl]ethyl}-3,7-dimethyl-1,2,3,7,8,8a-hexahydronaphthalen-1-yl 2,2-dimethylbutanoate]
Spiral ganglion neurons
  lowest effective dose for stimulating neurite growth (neurite length dose response): 5 µM

## CC(C)=CCC/C(C)=C/CC/C(C)=C/CC/C(C)=C/CO [geranylgeraniol]
Spiral ganglion neurons
  effect on neurite length at 10 μM: no effect upon growth of neurite length
